The results in this text go back to patent US20260256811A1, “Humoral Immune Activators for the Treatment of Humoral Immunosuppressed Pathologies, Cancer and Infectious Disease and Humoral Immune Suppressors for the Treatment of Inflammatory Diseases” (Navrogen, Inc., priority 2022, published 2026).

SMILES strings stand for the structures. Where only a bound is given, the exact number is not on record here.

In series [1] the target is T1, human CD16a-158F (Homo sapiens, UniProt P08637).
T1 construct: made in house
T1 sequence (P08637 with tags, fused parts or gaps): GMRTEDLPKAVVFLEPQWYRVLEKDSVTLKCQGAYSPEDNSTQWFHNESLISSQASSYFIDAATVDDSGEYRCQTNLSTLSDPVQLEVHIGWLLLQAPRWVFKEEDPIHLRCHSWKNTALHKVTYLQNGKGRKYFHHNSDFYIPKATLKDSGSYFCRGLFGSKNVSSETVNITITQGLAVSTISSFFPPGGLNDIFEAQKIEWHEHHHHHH
Kind of series: ELISA: CD16a-158F-HIS binding to coated pertuzumab (PTZ). The following applies: for suppression of CD16a-PTZ interaction: 2.5 μg/mL PTZ coat, human CD16a-158F-HIS probe, P≤0.005; for enhancement of CD16a-158F binding to IgG (PTZ): 10 μM, P<0.005. The method, then: (§1) Analysis of Compound 2 derived analogs described in Example 3 were conducted testing for enhanced CD16a FcR binding to IgG via ELISA. Briefly, 96 well plates were coated with PTZ as described above and probed with CD16a-158F-HIS in the presence of 10 μM parental Compound 2 and R5/R6 Compound analogs 22-34 to assay for those mediating enhanced CD16a-IgG binding. […] To further evaluate the impact of enhanced binding these compounds were tested for enhancing human PBMC ADCC as described above. Human breast cancer SKBR3 cells were plated in black 96-well microplates at 5,000 cell/well in R7.5 and grown overnight at 37° C. in 5% CO2. The next day 50,000 PBMCs in R1 medium were added per well in the presence of 1 or 5 μM of each compound or ethanol (EtOH) vehicle control in triplicates. Wells treated with EtOH and PTZ without PBMCs were used as a negative control. Cultures were incubated for 24 hours at 37° C. in 5% CO2 in triplicate. After incubation, target cell viability was quantified via Cell Titer-GLO (Promega) using a Varioskan plate reader. Units are shown as relative luminescent units (RLU).
Analogs of this class may be useful for suppressing inflammatory diseases. […] The teaching here has shown that the Compound 1, 2, 3 and 4 scaffolds can be utilized to add chemical groups that can enhance their activity for CD16a stimulation. Here we provide an example of how these scaffolds can be used to develop CD16a antagonists to suppress CD16a-IgG interactions and downstream activities, including production of proinflammatory cytokines such as IFNγ. FIGS. 10 and 13 show ELISA binding assays as described in Example 1. Briefly, 96-well clear microplates were coated with 2.5 μg/mL pertuzumab (PTZ) IgG or HSA as negative control (no PTZ). Wells were then probed with human CD16a-158F-HIS with or without compounds to monitor CD16a-PTZ binding. […] These scaffolds embody a primary inventive step that is taught within this application.
A general note: ELISA stands for enzyme-linked immunosorbent assay.

Series [2] in a line: Metabolic stability in mouse liver microsomes. It is filed as in vitro ADME. The method, then:
(§2) We next tested Compounds 2, 26, 27 and 33 for metabolic stability using human and mouse microsomes. For each test compound, samples were diluted a final concentration of 2 μg/mL in 25 mM potassium phosphate buffer with liver microsomes of each species at a final concentration of 0.5 mg/mL. The enzyme reaction was initiated by the addition of NADPH reagent at a final concentration of 1 mM. For negative control samples, NADPH reagent was not added. Samples were incubated at 37° C. on a 50-RPM orbital shaker, and an aliquot was removed at pre-determined timepoints at 0, 5, 10, 15, 30, and 60 minutes. Samples were then precipitated with three volume of acetonitrile containing propranolol as an internal standard, and centrifuged for 10 min at 2000 g then analyzed by LC/MS/MS. Note that compounds undergo only Phase I metabolism in liver microsomes in the presence of NADPH cofactors. Data interpretation of results are based on percent parent compound remaining relative to 0-minute incubation samples, from which the elimination half-life is calculated based on the natural log of % compound remaining vs. time plot. The following parameters were calculated to estimate the compound's in vitro metabolic stability: Cmp=concentration of microsomal proteins (mg/mL); t1/2=the half-life (min), where t1/2 is equal to 0.693/slope; CLint=the intrinsic hepatic clearance (μL/min/mg), where CLint is equal to 0.693/(t1/2×Cmp).

Series [3] is described as follows: Metabolic stability in human liver microsomes. It is filed as in vitro ADME. The method, then: as §2
(Microsomes from liver hold many membrane-bound enzymes, among them those of drug oxidation.)

The subject of series [4] is SKBR3 cells. Kind of series: ADCC killing of SKBR3 cells via pertuzumab with human PBMCs. In kind it is cell-based. The following applies: 1 or 5 μM, PTZ, 24 hours, P<0.0000075 over Compound 2. The method, then:
as §1

Series [5] deals with T2, CD16a-158F FcR (Homo sapiens, UniProt P08637).
T2 construct: host or cells: Jurkat (JKT-CD16a luciferase reporter line)
T2 sequence (P08637 17-254): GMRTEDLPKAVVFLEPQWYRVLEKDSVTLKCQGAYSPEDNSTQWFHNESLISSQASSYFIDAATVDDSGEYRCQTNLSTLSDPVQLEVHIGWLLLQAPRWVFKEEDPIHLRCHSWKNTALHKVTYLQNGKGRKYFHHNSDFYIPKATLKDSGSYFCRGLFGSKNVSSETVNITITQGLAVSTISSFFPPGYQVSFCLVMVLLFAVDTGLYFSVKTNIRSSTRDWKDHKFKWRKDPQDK
T2 sequence (P20963 22-164 partner): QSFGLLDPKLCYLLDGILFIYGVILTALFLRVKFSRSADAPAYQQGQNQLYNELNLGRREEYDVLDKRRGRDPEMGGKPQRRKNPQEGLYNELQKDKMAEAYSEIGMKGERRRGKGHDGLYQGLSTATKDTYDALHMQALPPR
Put plainly: Jurkat-CD16a-158F-luciferase (JKT-CD16a) reporter bioassay. In kind it is cell-based.

The nature of series [6]: in vivo. To be noted: mouse, po, 100 mg/kg. The method, then:
To further determine the pharmacologic properties of Compound 27, we tested for its oral bioavailability and ability to activate NK cells systemically in mice as determined measuring NK cell activation markers IFNγ and TNFα. For oral bioavailability, mice were fed a standard laboratory rodent diet and housed in individual cages on a 12-hour light and 12-hour dark cycle with at […] and relative humidity at 50±20%. Animals are fasted overnight before dosing, with food returned after 6 hours at which time blood samples are obtained. Water is provided ad libitum throughout the study. Compound 27 was prepared by grinding its precipitated powder into fine particles and suspended in 0.5% hydroxypropyl methylcellulose (HPMC) in water. Three animals were dosed via gavage needle for oral administration at 100 mg/kg (10 mL/kg). Blood samples (25-30 μL per sample) were taken via the saphenous vein at 5, 15, 30 minutes, and 1, 2, 4, 6, 8, 24 hours after administration. Additional blood samples (150-200 μL per sample) were taken at 24 hours for cytokine analysis. Blood samples were collected in Greiner MiniCollect K2EDTA tubes, placed on ice, and within 30 minutes, centrifuged at 15,000 g for 5 min to obtain plasma samples with additional 50-100 μLs of each plasma sample collected at 24 hours. All plasma samples were stored at −70° C. until analysis.
Bioanalysis of plasma samples were conducted as follows. Plasma samples were prepared using three volumes of acetonitrile containing internal standard to one volume of plasma to precipitate proteins. Samples were centrifuged at 3000 g for 10 minutes and supernatant removed for analysis by LC-MS/MS. Calibration standards and quality controls were made by preparation of a 1 mg/mL stock solution and subsequently a series of working solutions in methanol:water (1:1, v/v), which were spiked into blank plasma to yield a series of calibration standard samples ranging from 1 ng/ml to 10 μg/mL and quality control samples at three concentration levels (low, middle and high). All incurred plasma samples were treated identically to the calibration standards and quality control samples. LC-MS/MS analysis was performed utilizing multiple reaction monitoring for detection of characteristic ions for each drug candidate, additional related analytes and internal standard. Plasma concentrations are measured as described above to determine a concentration vs. time profile. The area under the plasma concentration vs time curve (AUC) is calculated using the linear trapezoidal method, known by those skilled in the art. Fitting of the data to obtain pharmacokinetic (PK) parameters was carried out using non-compartmental analysis.
Key PK parameters reported following extravascular administration are as follows: terminal half-life t1/2, maximum plasma concentration Cmax, time to reach maximum plasma concentration tmax, area under the plasma concentration vs. time curve AUC, mean residence time MRT, and bioavailability F. All parameters are expressed for individual animals as well as mean, standard deviation, and coefficient of variation and are commonly known by those skilled in the art.

The test system of series [7] is NK cells. Put plainly: Tolerability and NK cell activation markers after repeated oral dosing in mice. In kind it is in vivo, mouse. As to the method:
To determine the tolerability and ability to systemically activate NK cells in mice, we tested orally administered Compound 27 to mice. Six mice were randomized into treatment groups vehicle control (water) and 100 mg/kg Compound 27 all suspended in 0.5% hydroxypropyl methylcellulose. Mice were dosed orally on days 1-5, 7, 9, 11, 13, 15 and sacrificed on day 16 at which time plasma was collected. Tolerability was based on Day 1 bodyweight of each mouse. The maximum tolerated dose is determined as weight loss exceeding 20% or >10% of animals in a group die.
To confirm that oral administration of Compound 27 activated NK cells, the NK activation markers IFNγ and TNFα were measured from day 16 harvested plasma via ELISA using methods described in Example 1. […] These scaffolds embody a primary inventive step that is taught within this application.

Regarding `C[C@H](CCC(=O)O)[C@H]1CC[C@@]2(C)C3CC[C@H]4C(C)(C)[C@@H](O)CC[C@@]45C[C@@]35CC[C@]12C` (stereo partly drawn) [Compound 29], the “suppression of CD16a-PTZ interaction” value in series [1] is reported as ~ 49%.

On to `C[C@H](CCCO)[C@H]1CC[C@@]2(C)C3CC[C@H]4C(C)(C)[C@@H](O)CC[C@@]45C[C@@]35CC[C@]12C` (stereo partly drawn) [Compound 31], for which, in series [1], the “suppression of CD16a-PTZ interaction” value is listed as ~ 49%.

In the case of `CC(C)NCCC[C@@H](C)[C@H]1CC[C@@]2(C)C3CC[C@H]4C(C)(C)[C@@H](O)CC[C@@]45C[C@@]35CC[C@]12C` (stereo partly drawn) [Compound 26], the “enhancement of CD16a-158F binding to IgG (PTZ)” value (“enhancement … (PTZ)” for short) in series [1] is “significantly enhanced”. The microsomal CLint at 2 μg/mL was 2.16 µL/min/mg in series [2] (mouse liver microsomes 0.5 mg/mL, 2 μg/mL compound, NADPH, read-out: CLint (μL/min/mg protein) mouse) and 3.04 µL/min/mg in series [3] (human liver microsomes 0.5 mg/mL, 2 μg/mL compound, NADPH, read-out: CLint (μL/min/mg protein) human). In addition, the half-life at 2 μg/mL amounted to 641 min in series [2] (mouse liver microsomes 0.5 mg/mL, 2 μg/mL compound, NADPH, read-out: T½ (minutes) mouse) and 456 min in series [3] (human liver microsomes 0.5 mg/mL, 2 μg/mL compound, NADPH, read-out: T½ (minutes) human).

Consider `C[C@H](CCCNCCOCCOCCOCCOCCOCCOCCOCCOCCOCCOCCOCCO)[C@H]1CC[C@@]2(C)C3CC[C@H]4C(C)(C)[C@@H](O)CC[C@@]45C[C@@]35CC[C@]12C` (stereo partly drawn) [Compound 33], for which the “enhancement … (PTZ)” value in series [1] is recorded as “significantly enhanced”. In addition, the “enhancement of ADCC killing of SKBR3 cells” value in series [4] was “enhanced ADCC most significantly”. For the same molecule, the half-life at 2 μg/mL turned out to be 65.8 min in series [2] (mouse, microsomes) and 64.5 min in series [3] (human, microsomes). The microsomal CLint at 2 μg/mL came to 21.1 µL/min/mg in series [2] (mouse, microsomes) and 21.5 µL/min/mg in series [3] (human, microsomes).

As to `C[C@H](CCCNCCOCCO)[C@H]1CC[C@@]2(C)C3CC[C@H]4C(C)(C)[C@@H](O)CC[C@@]45C[C@@]35CC[C@]12C` (stereo partly drawn) [Compound 32], the “suppression of CD16a-PTZ interaction” value in series [1] was ~ 49%.

In the case of `CC(C)=CCC[C@@H](C)[C@H]1CC[C@@]2(C)C3=C(CC[C@]12C)[C@@]1(C)CC[C@H](O)C(C)(C)[C@@H]1CC3` [Compound 1, lanosta-8,24-dien-3β-ol], the “JKT-CD16a activation (luciferase RLU) in the presence of IgG” value in series [5] (OV-CD20 target cells plus 2.5 μg/mL rituximab, 12-18 hours, vs vehicle or no compound) is “significant enhancement”. In addition, the “JKT-CD16a-158F FcR activation (luciferase RLU) in the absence of IgG antibody” value in series [5] (OV-CD20 target cells without antibody, lower levels than with IgG) is recorded as “stimulated”.

`C[C@H](CCCN1CCCCC1)[C@H]1CC[C@@]2(C)C3CC[C@H]4C(C)(C)[C@@H](O)CC[C@@]45C[C@@]35CC[C@]12C` (stereo partly drawn) [Compound 27]: in series [1], the “enhancement … (PTZ)” value is on record as “significantly enhanced”. For the same molecule, in series [4], the “enhancement of ADCC killing of SKBR3 cells” value is given as “enhanced ADCC most significantly”. In series [2] (mouse, microsomes), the half-life at 2 μg/mL came to 610 min and the microsomal CLint at 2 μg/mL turned out to be 2.27 µL/min/mg. In series [3] (human, microsomes), this molecule gave a half-life at 2 μg/mL of 701 min and a microsomal CLint at 2 μg/mL of 1.98 µL/min/mg. For the same molecule, in series [6], the area under the curve AUC(0-t) was found to be 7750 ng·h/mL, the Cmax was 511 ng/mL, the Tmax was no more than 6 h and the bioavailability amounted to 11.7%. In series [6], this molecule showed a concentration at 24 hours of 242 ng/mL and a half-life of 1100 min. Further, the “tolerability of multiple oral dosing (health, body weight)” value in series [7] (100 mg/kg oral on days 1-5, 7, 9, 11, 13, 15) is “well tolerated”. In series [7] (100 mg/kg oral, day 16 plasma, ELISA, vs vehicle, P<0.0056), the “plasma NK cell activation markers IFNγ and TNFα” value is given as “upregulated”.

As a reminder, the AUC(0-t) is the area under the concentration-time curve up to a stated or last time point. By Cmax is commonly meant the maximum level reached in the sampled fluid or tissue. One may read the Tmax as the time from dosing to the highest level. For orientation: bioavailability means the share of a dose that reaches the circulation, judged against a reference dose that is usually intravenous. A low value points to poor availability.
